Laboratory results published in patent US20140094485A1, “SOLID STATE FORMS OF HIV INHIBITOR” (Gilead Sciences, Inc., priority 2012, published 2014).
Structures can show the parent of a compound that is named as a salt.

How the values were obtained:
[1] = Tabletability (tablet tensile strength as a function of upper punch compression pressure); assay type: physicochemical; details: for Tablet Tensile Strength: immediate release formulation, Form A
Source text: As used herein, the term “tabletability” refers to the capacity of a powdered material to be transformed into a tablet of specified strength under the effect of compaction pressure. Tabletability is the tensile strength as a function of compression force and describes the effectiveness of the applied pressure in increasing the tensile strength of the tablet.

[2] = Thermal gravimetric analysis (TGA); assay type: physicochemical; details: heating up to 175° C.; FIG. 4
Procedure: The TGA analysis was conducted on a […]. The thermal gravimetric curve was obtained on a sample heated at 10° C. per minute in a open cup under a nitrogen flow.

Cc1nc2ccccc2c(-c2ccc3c4c(ccnc24)CCO3)c1[C@H](OC(C)(C)C)C(=O)O (atropisomer, axis not shown) [hemi-succinate salt of Compound (I), (2S)-2-tert-butoxy-2-(4-(2,3-dihydropyrano[4,3,2-de]quinolin-7-yl)-2-methylquinolin-3-yl)acetic acid]
Tablet Tensile Strength ([1]; Upper Punch Compression Pressure 98 MPa): 2.17 MPa
Tablet Tensile Strength ([1]; Upper Punch Compression Pressure 140 MPa): 2.94 MPa
Tablet Tensile Strength ([1]; Upper Punch Compression Pressure 197 MPa): 3.18 MPa
Tablet Tensile Strength ([1]; Upper Punch Compression Pressure 253 MPa): 3.41 MPa
tabletability ([1]; result in words, FIG. 5): improved tabletability
weight loss during heating [2]: minimal weight loss
